Measurements taken from patent US9963452B2, “Methods, compounds, and compositions for inhibition of ROS” (AUGUSTA PHARMACEUTICALS INC., priority 2013, dated 2018).

Tests used:
[1] = test system: U138 glioblastoma cell line; assay: In-vitro cell survival assay (Alamar blue), U138; type: cell-based; details: 24 h; U138, one day after compound addition
Experimental: (§1) Five tumor-derived cell lines were treated with the ROS inhibitor compounds and cell survival was monitored to determine the cancer prohibition effects of the compounds. The cell lines included HeLa, a cervical cancer cell line, and four glioblastoma cell lines U138, U87, LN18, and U118. The basic protocol for the in-vitro cell survival assay is the same for all five cell lines. In particular, the cells were seeded in 96-well plates at 2-5×10^3 cells/well (cell line dependent) in culture medium. The cells were grown for 2 days before the compounds were dissolved in DMSO and added to final concentrations of 100 uM, 10 uM, or 1 uM (DMSO final concentration 0.5%). The cell culture was then assayed one day after the addition of the compounds. The assay used Alamar blue as a redox-sensitive dye that interrogates mitochondrial fitness of cells, and these assays provided a readout for cell proliferation and viability. The raw values were normalized to an average of several vehicle control wells and are presented as percent decrease in proliferation/viability, which is converted to half maximal effective concentration (EC50) values.

[2] = test system: HeLa cervical cancer cell line; assay: In-vitro cell survival assay (Alamar blue), HeLa; type: cell-based; details: Homo sapiens, 24 h, one day after compound addition
Experimental: as §1

[3] = test system: U87 glioblastoma cell line; assay: In-vitro cell survival assay (Alamar blue), U87; type: cell-based; details: 24 h; U87, one day after compound addition
Experimental: as §1

[4] = test system: LN18 glioblastoma cell line; assay: In-vitro cell survival assay (Alamar blue), LN18; type: cell-based; details: Homo sapiens, LN-18, 24 h; LN18, one day after compound addition
Experimental: as §1

ROS = ROS (Homo sapiens, UniProt P08922); assay: In vitro ROS enzymatic reaction assay (HTRF, Cisbio); type: biochemical; parameters: ROS or EGFR enzyme, 0.008 ng/ul; details: for inhibition at 10 µM / inhibition at 5 µM / Kinase Inhib. 10 uM (%) / Kinase Inhib. 5 uM (%): ROS kinase; for inhibition at 10 µM / Kinase Inhib. 10 uM (%): compound at 10 uM; for inhibition at 10 µM: read-out: Kinase Inhib. 10 uM (%); for inhibition at 5 µM / Kinase Inhib. 5 uM (%): compound at 5 uM; for inhibition at 5 µM: read-out: Kinase Inhib. 5 uM (%)
Experimental: The ROS enzymatic reactions were carried out with a high throughput screening platform for phosphor-detection of kinase activity. This platform based on homogeneous time resolved fluorescence (HTRF) technology from Cisbio Bioassays, Inc. (Cisbio). […] The reaction was allowed to proceed for 30 minutes at room temperature. An equal volume of detection buffer was then added to the reaction mix.

Sequence of ROS (P08922 28-2347): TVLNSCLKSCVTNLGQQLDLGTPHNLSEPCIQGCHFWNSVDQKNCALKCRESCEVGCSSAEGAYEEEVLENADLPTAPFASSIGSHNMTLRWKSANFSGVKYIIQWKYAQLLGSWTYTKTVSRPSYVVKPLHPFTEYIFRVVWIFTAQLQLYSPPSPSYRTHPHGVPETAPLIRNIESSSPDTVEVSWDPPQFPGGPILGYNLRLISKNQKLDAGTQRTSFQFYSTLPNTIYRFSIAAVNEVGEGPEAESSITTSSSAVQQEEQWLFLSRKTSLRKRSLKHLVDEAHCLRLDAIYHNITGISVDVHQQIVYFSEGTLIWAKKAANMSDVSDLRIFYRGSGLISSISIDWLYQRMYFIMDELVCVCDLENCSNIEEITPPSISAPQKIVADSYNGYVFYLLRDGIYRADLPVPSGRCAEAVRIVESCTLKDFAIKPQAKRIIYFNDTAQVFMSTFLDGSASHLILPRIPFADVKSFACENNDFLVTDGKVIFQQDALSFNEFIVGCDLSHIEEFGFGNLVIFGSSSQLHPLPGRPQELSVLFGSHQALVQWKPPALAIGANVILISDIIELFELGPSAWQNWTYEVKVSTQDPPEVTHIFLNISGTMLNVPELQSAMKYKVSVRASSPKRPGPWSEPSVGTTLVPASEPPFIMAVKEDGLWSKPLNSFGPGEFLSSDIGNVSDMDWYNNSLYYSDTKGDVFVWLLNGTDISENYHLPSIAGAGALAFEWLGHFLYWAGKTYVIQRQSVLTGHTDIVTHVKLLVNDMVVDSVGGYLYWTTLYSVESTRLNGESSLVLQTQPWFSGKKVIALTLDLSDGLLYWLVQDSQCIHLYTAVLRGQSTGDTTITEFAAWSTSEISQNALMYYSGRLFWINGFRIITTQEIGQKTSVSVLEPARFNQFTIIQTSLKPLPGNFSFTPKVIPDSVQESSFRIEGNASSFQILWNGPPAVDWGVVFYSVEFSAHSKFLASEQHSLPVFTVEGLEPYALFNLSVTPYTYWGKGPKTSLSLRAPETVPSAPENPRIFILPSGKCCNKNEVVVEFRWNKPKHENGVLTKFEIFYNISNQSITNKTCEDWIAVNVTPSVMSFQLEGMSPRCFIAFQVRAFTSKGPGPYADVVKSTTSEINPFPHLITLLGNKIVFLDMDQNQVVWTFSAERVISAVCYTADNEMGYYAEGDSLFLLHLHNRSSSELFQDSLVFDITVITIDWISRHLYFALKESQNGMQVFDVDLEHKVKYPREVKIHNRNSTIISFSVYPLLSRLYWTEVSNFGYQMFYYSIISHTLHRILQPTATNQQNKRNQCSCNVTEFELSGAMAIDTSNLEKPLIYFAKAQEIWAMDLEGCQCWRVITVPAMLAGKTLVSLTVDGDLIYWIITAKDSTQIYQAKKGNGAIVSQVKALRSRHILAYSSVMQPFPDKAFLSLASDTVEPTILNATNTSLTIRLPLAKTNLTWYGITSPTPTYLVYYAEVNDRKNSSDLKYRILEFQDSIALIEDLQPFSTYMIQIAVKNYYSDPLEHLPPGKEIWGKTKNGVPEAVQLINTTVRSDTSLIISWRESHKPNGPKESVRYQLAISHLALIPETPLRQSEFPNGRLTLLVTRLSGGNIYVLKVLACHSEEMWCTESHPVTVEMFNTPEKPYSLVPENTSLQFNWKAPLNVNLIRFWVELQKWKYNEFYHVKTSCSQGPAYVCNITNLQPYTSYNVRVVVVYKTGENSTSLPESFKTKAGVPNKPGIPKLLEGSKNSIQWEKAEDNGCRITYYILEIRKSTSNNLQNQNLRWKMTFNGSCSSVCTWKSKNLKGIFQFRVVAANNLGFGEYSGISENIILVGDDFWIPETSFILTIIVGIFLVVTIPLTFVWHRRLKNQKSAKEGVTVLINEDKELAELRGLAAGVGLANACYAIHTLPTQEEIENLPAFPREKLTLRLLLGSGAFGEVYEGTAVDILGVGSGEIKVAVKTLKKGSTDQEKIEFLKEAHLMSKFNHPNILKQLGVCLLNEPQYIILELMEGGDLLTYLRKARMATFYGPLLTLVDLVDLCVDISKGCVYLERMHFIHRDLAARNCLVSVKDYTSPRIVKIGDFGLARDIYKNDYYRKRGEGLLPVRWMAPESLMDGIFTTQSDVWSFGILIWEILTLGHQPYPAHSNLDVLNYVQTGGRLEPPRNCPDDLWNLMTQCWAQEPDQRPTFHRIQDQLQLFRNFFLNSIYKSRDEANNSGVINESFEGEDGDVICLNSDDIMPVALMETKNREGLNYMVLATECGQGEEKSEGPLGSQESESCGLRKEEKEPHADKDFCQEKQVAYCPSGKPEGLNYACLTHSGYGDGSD

NCC1CCN(C(=O)c2ccc(Nc3ncc(Cl)c(Nc4ccc5ncsc5c4)n3)cc2)CC1 [drawing 463]
EC50 [1]: 80 µM
EC50 [2]: 70 µM
EC50 [3]: > 100 µM
EC50 [4]: 100 µM

O=C(c1ccc(Nc2ncc(Cl)c(Nc3ccc4ncsc4c3)n2)cc1)N1CCCCC1 [drawing 443]
EC50 [1]: > 100 µM
EC50 [2]: > 100 µM
EC50 [3]: > 100 µM
EC50 [4]: > 100 µM

Nc1cccc(C2CCN(c3nccc(Nc4ccc5ncsc5c4)n3)CC2)c1 [drawing 439]
EC50 [1]: 5 µM
EC50 [2]: 6 µM
EC50 [3]: 14 µM
EC50 [4]: 15 µM

CC(C)c1nc(Nc2ccc(C(=O)N3CCOCC3)cc2)nc(Nc2ccc3ncsc3c2)n1 [drawing 460]
EC50 [1]: > 100 µM
EC50 [2]: 35 µM
EC50 [3]: > 100 µM
EC50 [4]: 80 µM

CC(C)c1nc(Nc2ccc(C(=O)N3CCCC3)cc2)nc(Nc2ccc3ncsc3c2)n1 [drawing 457]
EC50 [1]: 22 µM
EC50 [2]: 4 µM
EC50 [3]: 30 µM
EC50 [4]: 20 µM

O=C(NCC1CCNCC1)c1ccc(Nc2ncc(Cl)c(Nc3ccc4ncsc4c3)n2)cc1 [drawing 468]
EC50 [1]: > 100 µM
EC50 [2]: > 100 µM
EC50 [3]: > 100 µM
EC50 [4]: > 100 µM

Brc1cccc(Nc2nccc(Nc3ccc4ncsc4c3)n2)c1 [drawing 442]
EC50 [1]: > 100 µM
EC50 [2]: > 100 µM
EC50 [3]: > 100 µM
EC50 [4]: > 100 µM

C1=C(c2cccc(Nc3nccc(Nc4ccc5ncsc5c4)n3)c2)CCNC1 [drawing 441]
EC50 [1]: 25 µM
EC50 [2]: 13 µM
EC50 [3]: 40 µM
EC50 [4]: 22 µM

CC(C)c1nc(Nc2ccc3ncsc3c2)nc(N2CCOCC2)n1 [drawing 452]
EC50 [1]: 80 µM
EC50 [2]: 100 µM
EC50 [3]: > 100 µM
EC50 [4]: 80 µM

CC(C)c1nc(Nc2ccc(N)cc2)nc(Nc2cc(C3CC3)[nH]n2)n1 [drawing 461]
EC50 [1]: 8 µM
EC50 [2]: 14 µM
EC50 [3]: 35 µM
EC50 [4]: 40 µM

CC(C)(C)OC(=O)NC1CCN(C(=O)c2ccc(Nc3ncc(Cl)c(Nc4ccc5ncsc5c4)n3)cc2)CC1 [drawing 446]
EC50 [1]: 9 µM
EC50 [2]: 15 µM
EC50 [3]: 80 µM
EC50 [4]: 18 µM

NC1CCN(C(=O)c2cccc(Nc3ncc(Cl)c(Nc4ccc5ncsc5c4)n3)c2)CC1 [drawing 469]
EC50 [1]: 25 µM
EC50 [2]: 20 µM
EC50 [3]: 35 µM
EC50 [4]: 40 µM

CC(C)c1nc(Nc2ccc(C(=O)NC3CCCCC3)cc2)nc(Nc2ccc3ncsc3c2)n1 [drawing 456]
EC50 [1]: 40 µM
EC50 [2]: 28 µM
EC50 [3]: 45 µM
EC50 [4]: 30 µM

COc1ccc(C2=CCNCC2)cc1Nc1nccc(Nc2ccc3ncsc3c2)n1 [drawing 467]
EC50 [1]: 6.9 µM
EC50 [2]: 15 µM
EC50 [3]: 18 µM
EC50 [4]: 15 µM

c1cc(Nc2nccc(Nc3ccc4ncsc4c3)n2)cc(C2CCNCC2)c1 [drawing 440]
EC50 [1]: 25 µM
EC50 [2]: 15 µM
EC50 [3]: 35 µM
EC50 [4]: 18 µM

O=C1NN=C(c2ccccc2)/C1=C/Nc1ccccc1 [drawing 368]
EC50 [2]: > 100 µM
EC50 [4]: > 100 µM

CC(C)c1nc(Nc2ccc(C(=O)N3CCN(C)CC3)cc2)nc(Nc2ccc3ncsc3c2)n1 [drawing 458]
EC50 [1]: 28 µM
EC50 [2]: 30 µM
EC50 [3]: 35 µM
EC50 [4]: 40 µM

NS(=O)(=O)c1ccc(CCNC(=O)c2cc(-c3cccs3)nc3ccccc23)cc1 [drawing 221]
inhibition at 10 µM (ROS): 21.5%

Cc1cccc(Nc2nccc(Nc3cccc(C(=O)Nc4ccc(F)cc4)c3)n2)c1 [drawing 245]
inhibition at 5 µM (ROS): 47.3%

Cc1cccc(Nc2ccnc(Nc3cccc(C(=O)N4CC=CCC4)c3)n2)c1 [drawing 234]
IC50 (ROS): 80 nM
inhibition at 5 µM (ROS): 94.2%

CC(C)c1nc(Nc2ccc(C(=O)N3CCCC3)cc2)nc(Nc2ccc3ncsc3c2)n1 [drawing 320]
IC50 (ROS): 1880 nM
inhibition at 5 µM (ROS): 92.5%

Cc1ccc(NC(=O)CCn2ccc3ccccc32)cc1 [drawing 335]
inhibition at 10 µM (ROS): 27.5%

CC(C)c1nc(Nc2ccc(Br)cc2)nc(Nc2cc(C3CC3)n[nH]2)n1
IC50 (ROS): 67 nM

Cc1cccc(Nc2nccc(Nc3cccc(C(=O)N(C)CCCN(C)C)c3)n2)c1 [drawing 288]
inhibition at 5 µM (ROS): 98.6%

CCOC(Nc1cc(-c2sccc2-n2c(C)ccc2C)[nH]n1)OCC [drawing 227]
Kinase Inhib. 10 uM (%) (ROS): 27.57%

Cc1cccc(Nc2nccc(Nc3cccc(C(=O)NCc4ccc(F)cc4)c3)n2)c1 [drawing 242]
inhibition at 5 µM (ROS): 23.7%

O=c1c(O)c(-c2ccc(O)c(O)c2)oc2cc(O)cc(O)c12 [drawing 269]
IC50 (ROS): 50 nM
inhibition at 5 µM (ROS): 99.6%
inhibition at 10 µM (ROS): 98.2%

O=C(NCc1ccc(F)cc1)c1cccc(Nc2nccc(Nc3ccc4ncsc4c3)n2)c1 [drawing 286]
IC50 (ROS): 582 nM
inhibition at 5 µM (ROS): 101%

COc1ccc(C(F)(F)F)cc1NC(=O)CCn1ccc2ccccc21 [drawing 339]
inhibition at 10 µM (ROS): 26.4%

O=C(NCC1CCCO1)c1cccc(Nc2nccc(Nc3ccc4ncsc4c3)n2)c1 (stereo not shown)
inhibition at 5 µM (ROS): 101%

Cc1cc(-c2ccccc2)c2ccc(N)nc2n1 [drawing 343]
inhibition at 10 µM (ROS): 28.9%

O=C(NCC1CCCCC1)c1cccc(Nc2nccc(Nc3ccc4ncsc4c3)n2)c1 [drawing 270]
inhibition at 5 µM (ROS): 32.6%

CC(C)(C)c1cc(C(=O)NNc2cccc(Cl)c2)n(Cc2ccccc2)n1 [drawing 252]
Kinase Inhib. 10 uM (%) (ROS): 27.16%

NC(=O)c1c(NC(=O)[C@H]2CC(=O)N(c3ccccc3)C2)sc2c1CCCC2 [drawing 219]
IC50 (ROS): 1300 nM
inhibition at 10 µM (ROS): 41.5%

COc1ccc(NC(=O)CC2=Nc3cccc4cccc(c34)NC2=O)cc1 [drawing 345]
inhibition at 10 µM (ROS): 26.5%

O=C(c1ccccc1)c1nc(-c2ccco2)[nH]c1NCc1ccccc1
Kinase Inhib. 5 uM (%) (ROS): 25.92%

Cc1ccc(Cn2c(NCc3nc4ccccc4n3C)nc3ccccc32)cc1 [drawing 218]
inhibition at 10 µM (ROS): 20.2%

Cc1nc2cc(C(=O)N[C@H](c3ccccc3)c3cccnc3)ccc2[nH]1 [drawing 261]
inhibition at 5 µM (ROS): 23.6%

CN(C)CC(C)(C)CNC(=O)c1cccc(Nc2nccc(Nc3ccc4ncsc4c3)n2)c1 [drawing 276]
IC50 (ROS): 271 nM
inhibition at 5 µM (ROS): 101%

COc1ccc(N/C=C2\C(=O)NN=C2c2ccccc2)cc1 [drawing 232]
inhibition at 5 µM (ROS): 34.2%

COc1cccc(Nc2cc(Nc3cccc(C(=O)N4CCN(C(C)=O)CC4)c3)nc(N)n2)c1 [drawing 240]
inhibition at 5 µM (ROS): 22.3%

O=C(c1cccc(Nc2nccc(Nc3ccc4ncsc4c3)n2)c1)N1CCCCCC1 [drawing 284]
IC50 (ROS): 450 nM
inhibition at 5 µM (ROS): 100%

CC(C)c1nc(Nc2ccc(N)cc2)nc(Nc2ccc3ncsc3c2)n1
IC50 (ROS): 746 nM

COc1ccc(N/C=C2\C(=O)NN=C2c2ccccc2)cc1 [drawing 369]
EC50 [2]: 100 µM
EC50 [4]: 78 µM

O=C(NCCN1CCOCC1)c1cccc(Nc2nccc(Nc3ccc4ncsc4c3)n2)c1 [drawing 274]
inhibition at 5 µM (ROS): 101%

CC(C)c1nc(Nc2ccc(C(=O)N3CCCCC3)cc2)nc(Nc2ccc3ncsc3c2)n1 [drawing 318]
IC50 (ROS): > 5000 nM
inhibition at 5 µM (ROS): 58.6%

Clc1ccc(CNc2cc(-c3ccccc3)ncn2)cc1 [drawing 246]
inhibition at 10 µM (ROS): 21.2%

CC(C)c1nc(Nc2ccc(C(=O)N3CCOCC3)cc2)nc(Nc2ccc3ncsc3c2)n1 [drawing 323]
IC50 (ROS): 333 nM
inhibition at 5 µM (ROS): 65.7%

CCN(CCO)c1nc(Nc2ccc(F)cc2)c2cnn(-c3ccccc3)c2n1 [drawing 249]
IC50 (ROS): 16800 nM
Kinase Inhib. 10 uM (%) (ROS): 38.92%

COc1ccccc1C1C(C#N)=C(N)Oc2[nH]nc(C)c21 (stereo not shown)
Kinase Inhib. 5 uM (%) (ROS): 27.58%

Nc1nc(Nc2ccc(C(=O)NCCc3ccncc3)cc2)cc(Nc2ccc3ncsc3c2)n1 [drawing 280]
inhibition at 5 µM (ROS): 61.1%

CC(C)c1nc(Nc2ccc(C(=O)NCc3ccccc3)cc2)nc(Nc2cccc(Cc3nc4ccccc4s3)c2)n1 [drawing 316]
IC50 (ROS): > 5000 nM
inhibition at 5 µM (ROS): 45.1%

O=C(NCC1Cc2cc(-c3cncnc3)cc(Cl)c2O1)c1cccc(Cn2cccn2)c1 (stereo not shown)
IC50 (ROS): > 100000 nM
Kinase Inhib. 10 uM (%) (ROS): 30.25%

CC(C)c1nc(NCc2ccccc2)nc(Nc2ccc3ncsc3c2)n1
IC50 (ROS): 358 nM

CC(C)c1nc(Nc2ccc3ncsc3c2)nc(NC2CCCCC2)n1
IC50 (ROS): 1500 nM

NC(=O)c1c(NC(=O)Nc2ccccc2)sc2c1CCCC2 [drawing 264]
inhibition at 5 µM (ROS): 37.1%

Cc1ccc(NC=C2C(=O)NN=C2c2ccccc2)cc1 [drawing 370]
EC50 [2]: > 100 µM
EC50 [4]: 52 µM

CC(=O)N[C@@H]1CCN(C(=O)c2cccc(Nc3cc(N(C)c4cccc(C)c4)ncn3)c2)C1 [drawing 241]
inhibition at 5 µM (ROS): 29.6%

CN1CCN(C(=O)c2cccc(Nc3nccc(Nc4ccc5ncsc5c4)n3)c2)CC1 [drawing 278]
IC50 (ROS): 140 nM
inhibition at 5 µM (ROS): 99.4%
